Data: patent US20180000771A1, “AGENT FOR PREVENTING AND/OR TREATING AMYOTROPHIC LATERAL SCLEROSIS” (KYOTO UNIVERSITY, priority 2015, published 2018)
Where a name gives a salt, the structure may show the parent alone.

What was measured:
[1] = test system: motoneuron cells derived from iPS cells having SOD1-L144FVX mutation; test: survival of motoneuron cells induced from ALS patient iPS cells (SOD1 mutation); details: for MN index (motoneuron cell survival number ratio as compared to negative control): SOD1-L144FVX motoneuron cells contacted with medicament for 7 days, negative control DMSO; for cell survival rate improvement, SOD1 mutation / cell survival rate improving effect, significance, SOD1 mutation: added on day 7, survived motoneuron cells counted on day 14; for dose correlation in the protection effect on motoneuron cell having SOD1 mutation: FIG. 2, FIG. 6; for survival of motor neuron: familial ALS (mSOD1 ALS) motoneuron cells, 0, 0.01, 0.1, 1, 10 μM, n=6, p<0.05, FIG. 7
[2] = test system: motoneuron cells derived from iPS cells of ALS patients having C9orf72 mutation; test: survival of motoneuron cells induced from ALS patient iPS cells (C9orf72 mutation); type: cell-based, human; details: for cell survival rate improvement, C9orf72 mutation / cell survival rate improving effect, significance, C9orf72 mutation: added on day 7, survived motoneuron cells counted on day 14
[3] = test system: motoneuron cells derived from iPS cells of sporadic ALS patients; test: survival of motoneuron cells induced from sporadic ALS patient iPS cells; type: cell-based, human; details: added on day 7, survived motoneuron cells counted on day 14

Compound: COc1ccc2c(c1)/C(=C/c1c[nH]cn1)C(=O)N2 [SU9516]
- MN index (motoneuron cell survival number ratio as compared to negative control) [1]: 8.39

Compound: Cc1ccc(Nc2nccc(N(C)c3ccc4c(C)n(C)nc4c3)n2)cc1S(N)(=O)=O [Pazopanib]
- cell survival rate improvement, SOD1 mutation [1]: x (cell survival rate improvement less than 20%)
- cell survival rate improving effect, significance, SOD1 mutation [1]: ○ (significant difference (p < 0.05))
- cell survival rate improvement, C9orf72 mutation [2]: ○ (cell survival rate improvement not less than 20%)
- cell survival rate improving effect, significance, C9orf72 mutation [2]: ○ (significant difference (p < 0.05))
- cell survival rate improvement, sporadic [3]: x (cell survival rate improvement less than 20%)
- cell survival rate improving effect, significance, sporadic [3]: x (no significant difference (p ≧ 0.05))

Compound: O=C1Nc2ccccc2/C1=C1/Nc2ccccc2/C1=N\O [Indirubin-3′-monoxime]
- MN index (motoneuron cell survival number ratio as compared to negative control) [1]: 7.54

Compound: CC1=NN(c2ccccc2)C(=O)C1 [Edaravone]
- dose correlation in the protection effect on motoneuron cell having SOD1 mutation [1]: increase in the effect in a dose-dependent manner

Compound: CCN(CC)CCNC(=O)c1c(C)[nH]c(/C=C2\C(=O)Nc3ccc(F)cc32)c1C [Sunitinib]
- cell survival rate improvement, SOD1 mutation [1]: ○ (cell survival rate improvement not less than 20%)
- cell survival rate improving effect, significance, SOD1 mutation [1]: ○ (significant difference (p < 0.05))
- cell survival rate improvement, C9orf72 mutation [2]: ○ (cell survival rate improvement not less than 20%)
- cell survival rate improving effect, significance, C9orf72 mutation [2]: ○ (significant difference (p < 0.05))
- cell survival rate improvement, sporadic [3]: ○ (cell survival rate improvement not less than 20%)
- cell survival rate improving effect, significance, sporadic [3]: ○ (significant difference (p < 0.05))

Compound: Bosutinib [Bosutinib (SKI-606)]
- MN index (motoneuron cell survival number ratio as compared to negative control) [1]: 7.20

Compound: Cn1cnc2cc3c(Nc4cccc(Br)c4)ncnc3cc21 [BPIQ-I]
- MN index (motoneuron cell survival number ratio as compared to negative control) [1]: 8.14

Compound: Cc1ccc(NC(=O)c2ccc(CN3CC[C@H](N(C)C)C3)c(C(F)(F)F)c2)cc1Nc1nccc(-c2cncnc2)n1 [Bafetinib]
- survival of motor neuron [1]: increased survival of motor neuron

Compound: CCOc1ccn(-c2ccc(F)cc2)c(=O)c1C(=O)Nc1ccc(Oc2ccnc(N)c2Cl)c(F)c1 [BMS 777607]
- MN index (motoneuron cell survival number ratio as compared to negative control) [1]: 8.55

Compound: C[C@@H](Oc1cc(-c2cnn(C3CCNCC3)c2)cnc1N)c1c(Cl)ccc(F)c1Cl [Crizotinib]
- efficacy for ALS having SOD1 mutation (conclusion from Tables 5 and 6) [1]: higher efficacy
- dose correlation in the protection effect on motoneuron cell having SOD1 mutation [1]: increase in the effect in a dose-dependent manner
- cell survival rate improvement, SOD1 mutation [1]: ○ (cell survival rate improvement not less than 20%)
- cell survival rate improving effect, significance, SOD1 mutation [1]: ○ (significant difference (p < 0.05))
- cell survival rate improvement, C9orf72 mutation [2]: x (cell survival rate improvement less than 20%)
- cell survival rate improving effect, significance, C9orf72 mutation [2]: ○ (significant difference (p < 0.05))
- cell survival rate improvement, sporadic [3]: x (cell survival rate improvement less than 20%)
- cell survival rate improving effect, significance, sporadic [3]: x (no significant difference (p ≧ 0.05))

Compound: O=C(/C=C/C=C/c1ccc2c(c1)OCO2)N1CCCCC1 [PIPERINE]
- MN index (motoneuron cell survival number ratio as compared to negative control) [1]: 7.39

Compound: COc1cc(Nc2c(C#N)cnc3cc(OCCCN4CCN(C)CC4)c(OC)cc23)c(Cl)cc1Cl [Bosutinib]
- cell survival rate improvement, SOD1 mutation [1]: ○ (cell survival rate improvement not less than 20%)
- cell survival rate improving effect, significance, SOD1 mutation [1]: ○ (significant difference (p < 0.05))
- cell survival rate improvement, C9orf72 mutation [2]: ○ (cell survival rate improvement not less than 20%)
- cell survival rate improving effect, significance, C9orf72 mutation [2]: ○ (significant difference (p < 0.05))
- cell survival rate improvement, sporadic [3]: ○ (cell survival rate improvement not less than 20%)
- cell survival rate improving effect, significance, sporadic [3]: ○ (significant difference (p < 0.05))

Compound: Cn1cc(C2=C(c3cn(C4CCN(Cc5ccccn5)CC4)c4ccccc34)C(=O)NC2=O)c2ccccc21 [Enzastaurin]
- MN index (motoneuron cell survival number ratio as compared to negative control) [1]: 9.84

Compound: C[C@@H](Oc1cc(-c2cnn(C3CCNCC3)c2)cnc1N)c1c(Cl)ccc(F)c1Cl [Crizotinib (PF- 2341066), Crizotinib]
- MN index (motoneuron cell survival number ratio as compared to negative control) [1]: 7.60

Compound: CC1(C)O[C@@H]2C[C@H]3[C@@H]4C[C@H](F)C5=CC(=O)C=C[C@]5(C)[C@H]4[C@@H](O)C[C@]3(C)[C@]2(C(=O)CO)O1 [FLUNISOLIDE]
- MN index (motoneuron cell survival number ratio as compared to negative control) [1]: 7.86

Compound: O=C1c2ccccc2-c2n[nH]c3cccc1c23 [SP600125]
- MN index (motoneuron cell survival number ratio as compared to negative control) [1]: 8.38

Compound: NCCNc1ncc(C(N)=O)c(Nc2cccc(C(F)(F)F)c2)n1 [Syk Inhibitor II]
- MN index (motoneuron cell survival number ratio as compared to negative control) [1]: 7.59

Compound: Cn1cnc(-c2cc3nccc(Oc4ccc(NC(=S)NC(=O)Cc5ccccc5)cc4F)c3s2)c1 [MGCD-265]
- MN index (motoneuron cell survival number ratio as compared to negative control) [1]: 7.62

Compound: Sunitinib Malate
- MN index (motoneuron cell survival number ratio as compared to negative control) [1]: 8.13

Compound: CCN(CC)C(=O)c1ccc(Nc2nc(OCC3CCCCC3)c3nc[nH]c3n2)cc1 [Cdk2 Inhibitor IV, NU6140]
- MN index (motoneuron cell survival number ratio as compared to negative control) [1]: 7.08

Compound: Cc1ccc(Nc2nccc(N(C)c3ccc4c(C)n(C)nc4c3)n2)cc1S(N)(=O)=O [Pazopanib Hydrochloride]
- MN index (motoneuron cell survival number ratio as compared to negative control) [1]: 9.53

Compound: O=C(Nc1c[nH]nc1-c1nc2cc(CN3CCOCC3)ccc2[nH]1)NC1CC1 [AT9283]
- survival of motor neuron [1]: increased survival of motor neuron

Compound: CCN(CC)Cc1cc(Nc2ccnc3cc(Cl)ccc23)ccc1O [AMODIAQUINE DIHYDROCHLORIDE, AMODIAQUINE]
- MN index (motoneuron cell survival number ratio as compared to negative control) [1]: 8.98

Compound: Cc1cc(Nc2cc(N3CCN(C)CC3)nc(Sc3ccc(NC(=O)C4CC4)cc3)n2)n[nH]1 [VX-680, tozasertib]
- MN index (motoneuron cell survival number ratio as compared to negative control) [1]: 9.58

Compound: CC(O)CC(=O)O (racemic) [3-hydroxybutyric acid]
- dose correlation in the protection effect on motoneuron cell having SOD1 mutation [1]: increase in the effect in a dose-dependent manner

Compound: Cc1cn(-c2cc(NC(=O)c3ccc(C)c(Nc4nccc(-c5cccnc5)n4)c3)cc(C(F)(F)F)c2)cn1 [Nilotinib]
- survival of motor neuron [1]: increased survival of motor neuron

Compound: O=C(O)CCC(=O)c1ccc(-c2ccccc2)cc1 [FENBUFEN]
- MN index (motoneuron cell survival number ratio as compared to negative control) [1]: 7.22

Compound: CNC(=O)c1ccccc1Sc1ccc2c(/C=C/c3ccccn3)n[nH]c2c1 [Axitinib]
- dose correlation in the protection effect on motoneuron cell having SOD1 mutation [1]: increase in the effect in a dose-dependent manner
- MN index (motoneuron cell survival number ratio as compared to negative control) [1]: 7.35
- cell survival rate improvement, SOD1 mutation [1]: x (cell survival rate improvement less than 20%)
- cell survival rate improving effect, significance, SOD1 mutation [1]: x (no significant difference (p ≧ 0.05))
- efficacy for ALS having C9orf72 mutation (conclusion from Tables 5 and 6) [2]: higher efficacy
- cell survival rate improvement, C9orf72 mutation [2]: ○ (cell survival rate improvement not less than 20%)
- cell survival rate improving effect, significance, C9orf72 mutation [2]: ○ (significant difference (p < 0.05))
- cell survival rate improvement, sporadic [3]: x (cell survival rate improvement less than 20%)
- cell survival rate improving effect, significance, sporadic [3]: x (no significant difference (p ≧ 0.05))

Compound: CCNC(=O)CCC/C=C\C[C@@H]1[C@@H](/C=C/[C@@H](O)CCc2ccccc2)[C@H](O)C[C@@H]1O [Bimatoprost]
- dose correlation in the protection effect on motoneuron cell having SOD1 mutation [1]: increase in the effect in a dose-dependent manner

Compound: Oc1ccc(O)cc1 [HYDROQUINONE]
- MN index (motoneuron cell survival number ratio as compared to negative control) [1]: 7.96

Compound: Cc1nc(N)sc1-c1ccnc(Nc2ccc(N3CCOCC3)cc2)n1 [CYC116]
- MN index (motoneuron cell survival number ratio as compared to negative control) [1]: 8.14

Compound: Cc1c(C)c2c(c(C)c1O)CC[C@@](C)(CCC[C@H](C)CCC[C@H](C)CCCC(C)C)O2 [alpha- TOCHOPHEROL, alpha-TOCHOPHEROL]
- MN index (motoneuron cell survival number ratio as compared to negative control) [1]: 9.46

Compound: CCCCOC(=O)c1ccc(N)cc1 [BUTAMBEN]
- MN index (motoneuron cell survival number ratio as compared to negative control) [1]: 7.39

Compound: CN1CCc2cccc3c2[C@H]1Cc1ccc(O)c(O)c1-3 [APOMORPHINE HYDROCHLORIDE, APOMORPHINE]
- MN index (motoneuron cell survival number ratio as compared to negative control) [1]: 7.26

Compound: O=C1NC(=O)c2c1c(-c1ccccc1Cl)cc1[nH]c3ccc(O)cc3c21 [Weel Inhibitor]
- MN index (motoneuron cell survival number ratio as compared to negative control) [1]: 7.18

Compound: O=C(c1ccc(/C=C/c2n[nH]c3ccccc23)cc1)N1CCNCC1 [KW 2449]
- MN index (motoneuron cell survival number ratio as compared to negative control) [1]: 7.72

Compound: Cc1cc2nc3c(=O)[nH]c(=O)nc-3n(C[C@H](O)[C@H](O)[C@H](O)CO)c2cc1C [RIBOFLAVIN]
- MN index (motoneuron cell survival number ratio as compared to negative control) [1]: 9.55

Compound: Cc1ccc(NC(=O)c2ccc(CN3CCN(C)CC3)cc2)cc1Nc1nccc(-c2cccnc2)n1 [Imatinib]
- survival of motor neuron [1]: increased survival of motor neuron

Compound: CNC(=O)c1cc(Oc2ccc(NC(=O)Nc3cc(C(C)(C)C)nn3-c3ccc4ncccc4c3)c(F)c2)ccn1 [Rebastinib]
- survival of motor neuron [1]: increased survival of motor neuron

Compound: O=C(c1ccc(OCCN2CCCCC2)cc1)c1c(-c2ccc(O)cc2)sc2cc(O)ccc12 [Raloxifene]
- dose correlation in the protection effect on motoneuron cell having SOD1 mutation [1]: increase in the effect in a dose-dependent manner

Compound: COc1ccc2c(c1OC)C(=O)OC2C1c2cc3c(cc2CCN1C)OCO3 [HYDRASTINE (1R,9S)]
- MN index (motoneuron cell survival number ratio as compared to negative control) [1]: 7.53
